Experimental data published in ChEMBL document CHEMBL1134920, “1,3,4-Trisubstituted pyrrolidine CCR5 receptor antagonists. Part 4: synthesis of N-1 acidic functionality affording analogues with enhanced antiviral activity against HIV” (Bioorg Med Chem Lett, 2002).

How the values were obtained:
[1] = target: C-C chemokine receptor type 5 (Homo sapiens, UniProt P51681); experiment: In vitro binding affinity at CCR5 receptor in the presence of [125I]-MIP-1 alpha.
[2] = test system: Human immunodeficiency virus 1; experiment: In vitro inhibition of HIV-1 BAL strain infection of HeLa cell line.; assay type: functional; details: Human immunodeficiency virus 1, HeLa
[3] = target: Voltage-gated L-type calcium channel (Homo sapiens, UniProt Q13936+Q13698+Q01668+O60840); experiment: Inhibition of L-type Ca+2 channels; assay type: protein assay
[4] = Volume of distribution in steady state was determined in dog; assay type: ADME, organism-based, Canis lupus familiaris; details: in vivo, read-out: Vdss
[5] = Half-life in rat; assay type: ADME, organism-based; details: in vivo
[6] = Bioavailability in rat; assay type: ADME, organism-based; details: in vivo
[7] = Half-life in dog; assay type: ADME, organism-based, Canis lupus familiaris; details: in vivo
[8] = Plasma clearance in rat; assay type: ADME, organism-based; details: read-out: Clp
[9] = Bioavailability in Rhesus monkey; assay type: ADME, organism-based, Macaca mulatta; details: in vivo
[10] = Plasma clearance in dog; assay type: ADME, organism-based, Canis lupus familiaris; details: read-out: Clp
[11] = Inhibitory concentration was determined against peripheral blood mononuclear cells (PBMC); assay type: functional
[12] = Bioavailability in dog; assay type: ADME, organism-based, Canis lupus familiaris; details: in vivo
[13] = Volume of distribution in steady state was determined in rat; assay type: ADME, organism-based; details: in vivo, read-out: Vdss
[14] = species: Macaca mulatta; experiment: Plasma clearance in rhesus monkey; details: read-out: Clp
[15] = Half-life in rhesus monkey; assay type: ADME; details: cercopithecidae, in vivo
[16] = Volume of distribution in steady state was determined in rhesus monkey; assay type: ADME, organism-based; details: cercopithecidae, in vivo; read-out: Vdss
[17] = Plasma clearance in rhesus monkey; assay type: ADME, organism-based; details: cercopithecidae, read-out: Clp

Sequence of C-C chemokine receptor type 5 (P51681 whole entry): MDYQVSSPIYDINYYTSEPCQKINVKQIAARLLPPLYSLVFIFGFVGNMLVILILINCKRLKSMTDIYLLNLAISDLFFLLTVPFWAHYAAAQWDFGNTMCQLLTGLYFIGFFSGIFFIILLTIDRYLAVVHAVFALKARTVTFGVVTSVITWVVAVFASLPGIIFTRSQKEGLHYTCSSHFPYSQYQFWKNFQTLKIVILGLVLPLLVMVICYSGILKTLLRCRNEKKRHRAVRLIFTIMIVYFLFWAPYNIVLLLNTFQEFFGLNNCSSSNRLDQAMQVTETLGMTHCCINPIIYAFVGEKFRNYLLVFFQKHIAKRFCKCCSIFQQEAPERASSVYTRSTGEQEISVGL

O=C(O)[C@@H](C1CCC1)N1C[C@H](CN2CCC(CCCc3ccccc3)CC2)[C@@H](c2ccccc2)C1
IC50 [1]: 0.1 nM | IC90 [2]: 11 nM

CC(C)[C@H](C(=O)O)N1C[C@H](CN2CCC(c3ccc(F)cc3)CC2)[C@@H](c2ccccc2)C1
IC50 [3]: > 10000 nM | Vd [4]: 8.6 L/kg | half-life [5]: 1.9 h | bioavailability [6]: 50% | half-life [7]: 6.4 h | clearance [8]: 68.3 mL/min/kg | bioavailability [9]: 84% | clearance [10]: 13.1 mL/min/kg | IC50 [1]: 36 nM | IC95 [11]: > 3000 nM | bioavailability [12]: 34% | Vd [13]: 8.4 L/kg | clearance [14]: 14.6 mL/min/kg | half-life [15]: 7.8 h | Vd [16]: 4.2 L/kg | IC90 [2]: > 100 nM

OC[C@@H](C1CCCCC1)N1C[C@H](CN2CCC(O)(CCCc3ccccc3)CC2)[C@@H](c2ccccc2)C1
IC50 [1]: 1 nM | IC90 [2]: 300 nM

O=C(O)[C@H](C1CCCCC1)N1C[C@H](CN2CCC(O)(CCCc3ccccc3)CC2)[C@@H](c2ccccc2)C1
IC50 [1]: 5 nM | IC90 [2]: > 300 nM

CC(C)[C@H](C(=O)O)N1C[C@H](CN2CCC(O)(CCCc3ccccc3)CC2)[C@@H](c2ccccc2)C1
IC50 [1]: 2 nM | IC90 [2]: 333 nM

O=C(O)[C@@H](CC1CCC1)N1C[C@H](CN2CCC(CCCc3ccccc3)CC2)[C@@H](c2ccccc2)C1
IC50 [3]: 2700 nM | half-life [5]: 3 h | bioavailability [6]: 29% | clearance [8]: 26.5 mL/min/kg | IC50 [1]: 0.1 nM | IC95 [11]: < 8 nM | Vd [13]: 5.9 L/kg | IC90 [2]: 1.2 nM

O=C(O)[C@@H](C1CCCCC1)N1C[C@H](CN2CCC(O)(CCCc3ccccc3)CC2)[C@@H](c2ccccc2)C1
half-life [5]: 1.8 h | bioavailability [6]: 0% | clearance [8]: 128 mL/min/kg | IC50 [1]: 0.5 nM | IC95 [11]: 187 nM | Vd [13]: 15 L/kg | IC90 [2]: 11 nM

O=C(OCc1ccccc1)[C@H](C1CCCCC1)N1C[C@H](CN2CCC(O)(CCCc3ccccc3)CC2)[C@@H](c2ccccc2)C1
IC50 [1]: 24 nM | IC90 [2]: > 300 nM

OC1(CCCc2ccc(-c3nnn[nH]3)cc2)CCN(C[C@H]2CN(CC3CCCCC3)C[C@@H]2c2ccccc2)CC1
IC50 [3]: > 10000 nM | half-life [5]: 0.3 h | bioavailability [6]: 0% | IC90 [2]: 4 nM

CC(C)[C@H](C(=O)O)N1C[C@H](CN2CCC(CCCc3ccccc3)CC2)[C@@H](c2ccccc2)C1
IC50 [1]: 0.7 nM | IC90 [2]: 111 nM

OC[C@H](C1CCCCC1)N1C[C@H](CN2CCC(O)(CCCc3ccccc3)CC2)[C@@H](c2ccccc2)C1
IC50 [1]: 1 nM

O=C(O)CN1C[C@H](CN2CCC(O)(CCCc3ccccc3)CC2)[C@@H](c2ccccc2)C1
IC50 [1]: 6 nM | IC90 [2]: 3000 nM

C[C@H](C(=O)O)N1C[C@H](CN2CCC(O)(CCCc3ccccc3)CC2)[C@@H](c2ccccc2)C1
IC50 [1]: 3 nM | IC90 [2]: 333 nM

COC(=O)[C@H](C1CCCCC1)N1C[C@H](CN2CCC(O)(CCCc3ccccc3)CC2)[C@@H](c2ccccc2)C1
IC50 [1]: 4 nM

O=C(O)[C@@H](C1CCCCC1)N1C[C@H](CN2CCC(CCCc3ccccc3)CC2)[C@@H](c2ccccc2)C1
clearance [17]: 17.1 mL/min/kg | IC50 [3]: 5300 nM | Vd [4]: 3.1 L/kg | half-life [5]: 2.1 h | bioavailability [6]: 26% | half-life [7]: 9.2 h | clearance [8]: 17.6 mL/min/kg | bioavailability [9]: 10% | clearance [10]: 10.9 mL/min/kg | IC50 [1]: 0.1 nM | IC95 [11]: 77 nM | bioavailability [12]: 43% | Vd [13]: 3.3 L/kg | half-life [15]: 6.3 h | Vd [16]: 6.2 L/kg | IC90 [2]: 11 nM

O=C(O)[C@@H](c1ccccc1)N1C[C@H](CN2CCC(O)(CCCc3ccccc3)CC2)[C@@H](c2ccccc2)C1
IC50 [1]: 0.8 nM | IC90 [2]: 33 nM

O=C(O)[C@@H](CC1CC1)N1C[C@H](CN2CCC(CCCc3ccccc3)CC2)[C@@H](c2ccccc2)C1
IC50 [1]: 0.1 nM | IC90 [2]: 11 nM

O=C(O)[C@@H](C1CCCCC1)N1C[C@H](CN2CCC(c3ccc(F)cc3)CC2)[C@@H](c2ccccc2)C1
IC50 [1]: 4 nM | IC90 [2]: 0.4 nM

COC(=O)[C@@H](C1CCCCC1)N1C[C@H](CN2CCC(O)(CCCc3ccccc3)CC2)[C@@H](c2ccccc2)C1
IC50 [1]: 1 nM

O=C(O)[C@@H](C1CC1)N1C[C@H](CN2CCC(CCCc3ccccc3)CC2)[C@@H](c2ccccc2)C1
IC50 [1]: 3 nM | IC90 [2]: 300 nM

O=C(O)[C@@H](C1CCCC1)N1C[C@H](CN2CCC(CCCc3ccccc3)CC2)[C@@H](c2ccccc2)C1
IC50 [1]: 0.2 nM | IC90 [2]: 11 nM

O=C(OCc1ccccc1)[C@@H](C1CCCCC1)N1C[C@H](CN2CCC(O)(CCCc3ccccc3)CC2)[C@@H](c2ccccc2)C1
IC50 [1]: 3.6 nM | IC90 [2]: > 300 nM
